Data from patent publication US10793580B2, “Substituted pyrazoloazepin-8-ones and their use as phosphodiesterase inhibitors” (LEO Pharma A/S, priority 2016, dated 2020).
Where two headings read alike, the source gives them in different places.

Molecular target: human PDE4D catalytic domain (Homo sapiens (Human), UniProt Q08499)
Test: PDE4 Assay (TR-FRET, FAM-cAMP cleavage)
Assay type: biochemical
Conditions: read-out: PDE4 IC50 range
Procedure, shortened: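 Readout is Tb-to-FAM time-resolved FRET after nanoparticle capture of AMP, the product of cleaving a cAMP/FAM-cAMP mixture by PDE4D catalytic domain (S380-L740) in the presence of titrated compound. Values are IC50 ranges in nM: concentration halving substrate cleavage relative to controls.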

[1] = human PDE4D catalytic domain (UniProt Q08499 [S380-L740]), 50% inhibition of substrate cleavage

Chain of human PDE4D catalytic domain (Q08499 380-740): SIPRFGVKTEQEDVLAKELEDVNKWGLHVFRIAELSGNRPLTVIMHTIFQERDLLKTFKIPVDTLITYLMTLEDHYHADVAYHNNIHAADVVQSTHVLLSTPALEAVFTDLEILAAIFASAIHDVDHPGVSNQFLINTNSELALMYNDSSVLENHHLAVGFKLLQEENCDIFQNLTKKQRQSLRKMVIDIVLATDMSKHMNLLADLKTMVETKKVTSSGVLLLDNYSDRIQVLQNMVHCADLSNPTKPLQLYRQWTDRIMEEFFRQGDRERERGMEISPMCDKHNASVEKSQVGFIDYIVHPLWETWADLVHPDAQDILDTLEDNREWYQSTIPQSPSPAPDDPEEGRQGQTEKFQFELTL

CCn1nc(CCCOC(=O)c2cccc(Cl)c2OC)c2c1C(=O)NCC1(CCOCC1)C2 [Example 59, 3-(1-ethyl-8-oxo-spiro[6,7-dihydro-4H-pyrazolo[3,4-c]azepine-5,4′-tetrahydropyran]-3-yl)propyl 3-chloro-2-methoxy-benzoate]
IC50 [1]: < 0.1 µM

CCc1ccc(C(=O)OCCCc2nn(CC)c3c2CC2(CCOCC2)CNC3=O)cc1 [Example 15, 3-(1-ethyl-8-oxo-spiro[6,7-dihydro-4H-pyrazolo[3,4-c]azepine-5,4′-tetrahydropyran]-3-yl)propyl 4-ethylbenzoate]
IC50 [1]: < 0.1 µM

CCn1nc(CC(C)(C)COC(=O)c2ccc(C(=O)N3CCOCC3)cc2)c2c1C(=O)NCC1(CCOCC1)C2 [Example 223, [3-(1-ethyl-8-oxo-spiro[6,7-dihydro-4H-pyrazolo[3,4-c]azepine-5,4′-tetrahydropyran]-3-yl)-2,2-dimethyl-propyl] 4-(morpholine-4-carbonyl)benzoate]
IC50 [1]: < 0.1 µM

CCn1nc(CC(C)(C)COC(=O)c2cnc(C)o2)c2c1C(=O)NCC1(CCOCC1)C2 [Example 302, [3-(1-ethyl-8-oxo-spiro[6,7-dihydro-4H-pyrazolo[3,4-c]azepine-5,4′-tetrahydropyran]-3-yl)-2,2-dimethyl-propyl] 2-methyloxazole-5-carboxylate]
IC50 (Table 17, Examples 297-316): < 0.1 µM

CCn1nc(CCCOC(=O)c2ccc(OC)cc2F)c2c1C(=O)NCC1(CCOCC1)C2 [Example 38, 3-(1-ethyl-8-oxo-spiro[6,7-dihydro-4H-pyrazolo[3,4-c]azepine-5,4′-tetrahydropyran]-3-yl)propyl 2-fluoro-4-methoxy-benzoate]
IC50 [1]: < 0.1 µM
